{"source": "patent US12194053B2", "about": "“Compositions and methods for reducing oxidative damage” (University of Louisville Research Foundation, Inc., priority 2012, dated 2025)", "tested_on": "porcine lenses", "description": "To analyze the efficacy and the biocompatibility of the compositions produced as described above, an ex viva analysis was undertaken in which the compositions were applied to eye lenses ex vivo. In these experiments, harvested porcine lenses were utilized.\nUpon establishing the culturing conditions for the lenses, hyperoxic conditions were created and used to test the efficacy of the gelled compositions in protecting against oxidative damage and cataract formation. Briefly, in these experiments, two methods were used to test the efficacy of the compositions in preventing oxidative lens damage. Initially, oxidative damage with superoxide radicals generated by the addition of hydrogen peroxide into the lens culture medium was employed.", "note": "Where two headings read alike, the source gives them in different places."}
{"smiles": "OO", "note": "[H2O2, hydrogen peroxide]", "values": [{"measurement": "day lens clarity started to be affected", "setting": "0.3 mM H2O2", "result": 9, "unit": "days"}, {"measurement": "lens area opacified by day 14", "setting": "0.3 mM H2O2", "result": 40, "unit": "%"}, {"measurement": "day lens opacity started", "setting": "0.4 mM H2O2", "result": 5, "unit": "days"}, {"measurement": "lens area covered by opacity by day 14", "setting": "0.4 mM H2O2", "result": 60, "unit": "%"}, {"measurement": "day lens opacity started", "setting": "0.5 mM H2O2", "result": 3, "unit": "days"}, {"measurement": "lens opacity on day 14", "setting": "0.5 mM H2O2", "result": 90, "unit": "%"}, {"measurement": "extent of cataract by day 5", "setting": "1 mM H2O2", "result": "total cataract"}, {"measurement": "time lens opacity first appeared", "setting": "1 mM H2O2 in lens culture medium", "result": 24, "unit": "h"}, {"measurement": "lens opacification", "setting": "H2O2 concentrations below 0.3 mM, up to 28 days of ex vivo culturing", "result": "did not appear to cause any lens opacification"}]}
